How the values were obtained:
Assay in all cases: relative viability (nuclei count vs DMSO), 5 days (fraction); higher = more cells survive
GW-2580 + Vorinostat = compound: COC1=CC=C(C=C1)COC2=C(C=C(C=C2)CC3=CN=C(N=C3N)N)OC [GW-2580] + O=C(CCCCCCC(=O)Nc1ccccc1)NO [Vorinostat] (partner 1 µM)
Summary of the method: (§1)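 Each reported value is a median over duplicate plates. It expresses relative viability: treated-well nuclei count divided by vehicle-well nuclei count. Lung cancer cell lines in 1536-well plates were dosed by pin tool a day after seeding, alone with one drug or with a fixed anchor-drug dose plus five library-drug doses (not always all listed) in √10 steps, and nuclei were counted after 5 days.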

Fedratinib + Luminespib = compound: Cc1cnc(Nc2ccc(OCCN3CCCC3)cc2)nc1Nc1cccc(S(=O)(=O)NC(C)(C)C)c1 [Fedratinib] + CCNC(=O)c1noc(-c2cc(C(C)C)c(O)cc2O)c1-c1ccc(CN2CCOCC2)cc1 [Luminespib] (partner 0.01 µM)
Summary of the method: as §1

Fedratinib + OSI-027 = compound: Cc1cnc(Nc2ccc(OCCN3CCCC3)cc2)nc1Nc1cccc(S(=O)(=O)NC(C)(C)C)c1 [Fedratinib] + COc1cccc2cc(-c3nc([C@H]4CC[C@H](C(=O)O)CC4)n4ncnc(N)c34)[nH]c12 [OSI-027] (partner 0.5 µM)
Summary of the method: as §1

Fedratinib + Linsitinib = compound: Cc1cnc(Nc2ccc(OCCN3CCCC3)cc2)nc1Nc1cccc(S(=O)(=O)NC(C)(C)C)c1 [Fedratinib] + C[C@]1(O)C[C@@H](c2nc(-c3ccc4ccc(-c5ccccc5)nc4c3)c3c(N)nccn32)C1 [Linsitinib] (partner 1 µM)
Summary of the method: as §1

Fedratinib + Tozasertib = compound: Cc1cnc(Nc2ccc(OCCN3CCCC3)cc2)nc1Nc1cccc(S(=O)(=O)NC(C)(C)C)c1 [Fedratinib] + Cc1cc(Nc2cc(N3CCN(C)CC3)nc(Sc3ccc(NC(=O)C4CC4)cc3)n2)n[nH]1 [Tozasertib] (partner 0.1 µM)
Summary of the method: as §1

Fedratinib + Olaparib = compound: Cc1cnc(Nc2ccc(OCCN3CCCC3)cc2)nc1Nc1cccc(S(=O)(=O)NC(C)(C)C)c1 [Fedratinib] + O=C(c1cc(Cc2n[nH]c(=O)c3ccccc23)ccc1F)N1CCN(C(=O)C2CC2)CC1 [Olaparib] (partner 8 µM)
Summary of the method: as §1

Row | Cell Line | relative viability (GW-2580 + Vorinostat; first compound 0.08 µM) | relative viability (GW-2580 + Vorinostat; first compound 0.8 µM) | relative viability (GW-2580 + Vorinostat; first compound 2.53 µM) | relative viability (GW-2580 + Vorinostat; first compound 8 µM) | relative viability (Fedratinib + Luminespib; first compound 0.1 µM) | relative viability (Fedratinib + Luminespib; first compound 0.3162 µM) | relative viability (Fedratinib + Luminespib; first compound 1 µM) | relative viability (Fedratinib + OSI-027; first compound 0.1 µM) | relative viability (Fedratinib + OSI-027; first compound 0.3162 µM) | relative viability (Fedratinib + OSI-027; first compound 1 µM) | relative viability (Fedratinib + Linsitinib; first compound 0.1 µM) | relative viability (Fedratinib + Linsitinib; first compound 0.3162 µM) | relative viability (Fedratinib + Linsitinib; first compound 1 µM) | relative viability (Fedratinib + Tozasertib; first compound 0.1 µM) | relative viability (Fedratinib + Tozasertib; first compound 0.3162 µM) | relative viability (Fedratinib + Tozasertib; first compound 1 µM) | relative viability (Fedratinib + Olaparib; first compound 0.1 µM) | relative viability (Fedratinib + Olaparib; first compound 0.3162 µM) | relative viability (Fedratinib + Olaparib; first compound 1 µM)
1 | NCI-H23 | 0.53 | 0.782 | 0.462 | 0.546 | 0.193 | 0.212 | 0.204 | 0.579 | 0.654 | 0.525 | 0.583 | 0.618 | 0.431 | 0.528 | 0.364 | 0.303 | 0.286 | 0.3 | 0.289
2 | NCI-H1944 | 0.551 | 0.53 | 0.513 | 0.52 | 0.741 | 0.801 | 0.763 | 0.343 | 0.413 | 0.344 | 1.28 | 1.12 | 1.1 | 0.25 | 0.225 | 0.209 | 0.407 | 0.383 | 0.408
3 | NCI-H1793 | 0.755 | 0.88 | 0.566 | 0.718 | 0.174 | 0.163 | 0.204 | 0.237 | 0.271 | 0.234 | 0.937 | 0.857 | 0.899 | 0.263 | 0.353 | 0.288 | 0.998 | 0.941 | 0.775
4 | NCI-H520 | 0.935 | 0.651 | 0.768 | 0.682 | 0.265 | 0.194 | 0.23 | 0.255 | 0.253 | 0.216 | 1.09 | 1.25 | 1.02 | 0.438 | 0.467 | 0.405 | 0.306 | 0.347 | 0.29
5 | NCI-H460 | 0.85 | 1.11 | 0.721 | 0.631 | 0.0244 | 0.0389 | 0.0213 | 0.642 | 0.645 | 0.507 | 0.806 | 0.773 | 0.52 | 0.078 | 0.379 | 0.334 | 0.483 | 0.395 | 0.415
6 | EKVX | 0.711 | 0.951 | 0.808 | 0.679 | 0.888 | 0.866 | 0.934 | 0.702 | 0.745 | 0.758 | 1.09 | 0.967 | 0.982 | 0.359 | 0.343 | 0.407 | 0.969 | 0.811 | 0.853
7 | NCI-H358 | 0.754 | 0.816 | 0.631 | 0.984 | 0.578 | 0.2 | 0.307 | 0.594 | 0.892 | 0.47 | 0.565 | 0.597 | 0.53 | 0.0945 | 0.0925 | 0.0987 | 0.62 | 0.536 | 0.44

From the supplement of paper PMC10307832
